Consider three molecules from publication PMC8879095, “UHPLC-MS/MS Analysis of Antibiotics Transfer and Concentrations in Porcine Oral Fluid after Intramuscular Application” (Pharmaceuticals, 2022).

Like-named read-outs stand apart in the source and are kept apart here. Bounds are passed on as bounds.

For orientation: pKa means the pH at which an ionisable group is half protonated.

On the set-up of series [1]: method as in PMID 14651045, PMID 14651045. To be noted: cited from earlier work.
A short description of series [2]: Antibiotic concentrations in porcine oral fluid after intramuscular application (UHPLC-MS/MS). The format is in vivo. To be noted: pigs, i.m.; for concentration in oral fluid at withdrawal period: at the end of the withdrawal period for tissues of each drug (Table 3); for time for which the analyte was present / quantified in oral fluid: sampling for 30 days. On the procedure: All animals were born in the sow farm (8000 DanBred sows) located in Northern Poland, after crossing ♀(♂Landrace × ♀Yorskshire) × ♂Duroc. Piglets were weaned after 4 weeks of lactation with an average weight of 6 kg and then moved to the weaner stable (23,000 weaners). After the next 7 weeks, animals were transported to the 9000-places fattening farm with an average body weight of 28 kg, where the trial was performed. All farms in the aforementioned three-phase model used weekly batches and an all-in all-out system. Specialist veterinary and production management care were provided in each location.
For the purpose of the study, 240 immunologically castrated boars were divided into 8 groups, 30 animals in each pen. For the control group, 30 pigs were used in separate pens. Their initial body weight was between 40 and 60 kg. Pigs were housed at 20–25 °C. Fatteners were fed ad libitum with antimicrobial-free water and feed provided by feeders throughout the study. Before the experiment, water and feed were checked for antimicrobials, and no antimicrobial treatments were administered to these pigs before. All animals in one pen were treated due to the same health issue using disposable needles and the same drug and dosage. Pens were separated from each other with concrete walls. The drugs and dosage administered to each experimental group with an indication of withdrawal period for tissues are listed in Table 3. The oral fluid samples were collected using three cotton ropes (70 cm length with 1 cm diameter) in each pen suspended separately for 25 min on the front wall of the pen with bottoms at the pigs’ shoulder height, away from water and feed.
The research material was one pooled sample of oral fluid from 10 pigs, in triplicate, per pen. Ropes were removed immediately after collection. The first oral fluid sample was collected 24 h after the first injection. The collection of each subsequent sample took place at the same time (11:30 A.M.) for 35 consecutive days. Additionally, oral fluid samples were collected from pigs not treated with any antibiotics. Oral fluid from each pen was pooled into one 50-mL Falcon plastic tube and centrifuged at 9447× rcf for 15 min. Centrifuged material was transferred to a 15 mL plastic tube and frozen at −20 °C until analysis.
Before the analysis, the oral fluid samples were centrifuged at 9447× rcf. Next, an aliquot (1 mL) of oral fluid was placed into a 2 mL polypropylene centrifuge tube, and the 30 µL of the internal standard at the concentration of 2 µg/mL was added. For the extraction of analysed antibiotics, 600 µL of 0.5% formic acid was added, vortexed for 30 s and centrifuged for 10 min at 9447× rcf. Then, the supernatant was filtered through a […] PVDF filter into an amber glass vial before chromatographic analysis.
The mass spectrometry detection was operated in the positive ESI mode with multiple reaction monitoring (MRM).

On the set-up of series [3]: method as in PMID 28042939. Particulars: 21st day, i.m., cited from earlier work.
The conditions of series [4]: organic acid; cited from earlier work.
[5] abbreviates: male, (Landrace × Yorkshire) × Duroc crossbred (DanBred sows), pig, intramuscular, oral fluid, time 1 d (24 h after first injection), treatment period, read-out: Avarage Concentrations in oral fluid.
Setting [6] is: male, (Landrace × Yorkshire) × Duroc crossbred (DanBred sows), pig, intramuscular, oral fluid, treatment period, read-out: Avarage Concentrations in oral fluid.
Where [7] appears, read: male, (Landrace × Yorkshire) × Duroc crossbred (DanBred sows), pig, intramuscular, oral fluid, posttreatment, read-out: Avarage Concentrations in oral fluid.
[8] abbreviates: oral fluid, time 1 d (24 h after first injection), treatment period.
[9] abbreviates: oral fluid, time 9 d, posttreatment.
Setting [10] is: oral fluid, time 10 d, posttreatment.
Where [11] appears, read: oral fluid, time 11 d, posttreatment.
The mark [12] stands for this setting: oral fluid, time 12 d, posttreatment.
[13] abbreviates: oral fluid, time 13 d, posttreatment.
Setting [14] is: oral fluid, time 14 d, posttreatment.
The mark [15] stands for this setting: oral fluid, time 15 d, posttreatment.
Setting [16] is: oral fluid, time 16 d, posttreatment.
Setting [17] is: oral fluid, time 17 d, posttreatment.
Where [18] appears, read: oral fluid, time 18 d, posttreatment.
Where [19] appears, read: oral fluid, time 19 d, posttreatment.
Setting [20] is: oral fluid, time 20 d, posttreatment.
Setting [21] is: oral fluid, time 21 d, posttreatment.
Where [22] appears, read: oral fluid, time 22 d, posttreatment.
[23] abbreviates: oral fluid, time 23 d, posttreatment.
Setting [24] is: oral fluid, time 24 d, posttreatment.
[25] abbreviates: oral fluid, time 25 d, posttreatment.
[26] abbreviates: oral fluid, time 26 d, posttreatment.
The mark [27] stands for this setting: oral fluid, time 27 d, posttreatment.
The mark [28] stands for this setting: oral fluid, time 28 d, posttreatment.
Where [29] appears, read: oral fluid, time 29 d, posttreatment.
Where [30] appears, read: oral fluid, time 30 d, posttreatment.

With `CC1(C)S[C@@H]2[C@H](NC(=O)[C@H](N)c3ccc(O)cc3)C(=O)N2[C@H]1C(=O)O` [AMX, amoxicillin], the “binding degree to plasma proteins” value in series [1] is “≈ 25%”. In addition, in series [2] (setting [5]), the concentration at 1 d is 11.3 ng/mL. Also, the concentration at 2 d in series [2] (setting [6]) came out at 15.2 ± 2.3 ng/mL. Moreover, the concentration at 3 d in series [2] (setting [6]) was determined as 14.6 ± 1.8 ng/mL. In addition, the concentration at 4 d in series [2] (setting [7]) was 11.4 ± 1.4 ng/mL. Further, in series [2] (setting [7]), the concentration at 5 d was 11.2 ± 1.6 ng/mL. Further, the “concentration in oral fluid at withdrawal period” value in series [2] (oral fluid) was “below the limit of quantification”. The “time for which the analyte was present / quantified in oral fluid” value in series [2] (oral fluid) is reported as 5 days. Moreover, the “Avarage Concentrations in oral fluid” value is 11.3 ± 1.6 µg/L in series [2] (setting [8]); “<LOQ” in series [2] (oral fluid, time 6 d, posttreatment); “<LOQ” in series [2] (oral fluid, time 7 d, posttreatment); “<LOQ” in series [2] (oral fluid, time 8 d, posttreatment); “<LOQ” in series [2] (setting [9]); “<LOQ” in series [2] (setting [10]). Moreover, the “Avarage Concentrations in oral fluid” value in series [2] (setting [11]) is “<LOQ *”; in series [2] (setting [12]) it was “<LOQ”; in series [2] (setting [13]), “<LOQ”; in series [2] (setting [14]) it was “<LOQ”; in series [2] (setting [15]), “<LOQ”; in series [2] (setting [16]), “<LOQ”. In addition, the “Avarage Concentrations in oral fluid” value in series [2] (setting [17]), in series [2] (setting [18]), in series [2] (setting [19]), in series [2] (setting [20]), in series [2] (setting [21]) and in series [2] (setting [22]) was “<LOQ” throughout. The “Avarage Concentrations in oral fluid” value in series [2] (setting [23]), in series [2] (setting [24]), in series [2] (setting [25]), in series [2] (setting [26]), in series [2] (setting [27]) and in series [2] (setting [28]) was “<LOQ” in each case. The “Avarage Concentrations in oral fluid” value in series [2] (setting [29]) and in series [2] (setting [30]) was “<LOQ” each time. For the same molecule, in series [2] (conclusion in words), the “distribution to oral fluid” value is on record as “low penetration”.
Consider `CN(C)[C@@H]1C(O)=C(C(N)=O)C(=O)[C@@]2(O)C(O)=C3C(=O)c4c(O)cccc4[C@@](C)(O)[C@H]3[C@H](O)[C@@H]12` [oxytetracycline], for which the “concentration in oral fluid at the withdrawal period” value in series [3] (group where all pigs were treated) was 30.8 µg/kg; in series [3] (group where the antibiotic was administered to half of the animals in one pen), 11.6 µg/kg.
With `CC1(C)S[C@@H]2[C@H](NC(=O)Cc3ccccc3)C(=O)N2[C@H]1C(=O)O` [PEN G, penicillin G], the concentration at 1 d in series [2] (setting [5]) was found to be 93 ng/mL. The concentration at 2 d in series [2] (setting [6]) amounted to 50 ± 15 ng/mL. For the same molecule, in series [2] (setting [6]), the concentration at 3 d came to 11 ± 4.6 ng/mL. In addition, the concentration at 4 d in series [2] (setting [7]) is 16 ± 5.4 ng/mL. The concentration at 5 d in series [2] (setting [7]) amounted to 5.2 ± 1.1 ng/mL. Further, the concentration at 6 d in series [2] (male, (Landrace × Yorkshire) × Duroc crossbred (DanBred sows), pig, intramuscular, oral fluid, time 6 d, posttreatment, read-out: Avarage Concentrations in oral fluid) is 52 ± 13 ng/mL. The concentration at 7 d in series [2] (male, (Landrace × Yorkshire) × Duroc crossbred (DanBred sows), pig, intramuscular, oral fluid, time 7 d, posttreatment, read-out: Avarage Concentrations in oral fluid) was found to be 32 ± 7.2 ng/mL. In addition, the concentration at 8 d in series [2] (male, (Landrace × Yorkshire) × Duroc crossbred (DanBred sows), pig, intramuscular, oral fluid, time 8 d, posttreatment, read-out: Avarage Concentrations in oral fluid) is 6 ± 1.2 ng/mL. The “concentration in oral fluid at withdrawal period” value in series [2] (oral fluid) is listed as “below the limit of quantification”. The “time for which the analyte was present / quantified in oral fluid” value in series [2] (oral fluid) was 8 days. Further, the “Avarage Concentrations in oral fluid” value was 93 ± 21 µg/L in series [2] (setting [8]); “<LOQ *” in series [2] (setting [9]); “<LOQ” in series [2] (setting [10]); “<LOQ” in series [2] (setting [11]); “<LOQ” in series [2] (setting [12]); “<LOQ” in series [2] (setting [13]). Moreover, the “Avarage Concentrations in oral fluid” value in series [2] (setting [14]), in series [2] (setting [15]), in series [2] (setting [16]), in series [2] (setting [17]), in series [2] (setting [18]) and in series [2] (setting [19]) was “<LOQ” throughout. In addition, the “Avarage Concentrations in oral fluid” value in series [2] (setting [20]), in series [2] (setting [21]), in series [2] (setting [22]), in series [2] (setting [23]), in series [2] (setting [24]) and in series [2] (setting [25]) was “<LOQ” in each case. The “Avarage Concentrations in oral fluid” value in series [2] (setting [26]), in series [2] (setting [27]), in series [2] (setting [28]), in series [2] (setting [29]) and in series [2] (setting [30]) was “<LOQ” in each case. Also, in series [4], the pKa is listed as 2.7.
